Test results reported in patent publication US20250129021A1, “SMALL MOLECULE PROTEIN SYNTHESIS MODULATORS” (Interdict Bio, Inc., priority 2023, published 2025).

Tests used:
Type in all cases: biochemical
[1] = system: NFKB1; assay: In vitro transcription-translation (IVTT) assay, NFKB1 reporter; conditions: HeLa S3 lysate, sfGFP/mCherry ratio
Method: In vitro transcription-translation assay setup: Each assay includes a master mix containing lysate and shared components, a 96-well plate containing compound titrations for testing, a 96-well DNA plate with reporter constructs to be tested, 96-well skirted PCR plates, and 96-well flat-bottom, black, fluorescent assay plates. Reaction materials setup: (A) Master mix—15 mL conical tube (3 mL of HeLa S3 Lysate described above; 0.6 mL of ThermoFisher Accessory Proteins (#88882); 1.2 ml of ThermoFisher Reaction Mix (#88882); 0.54 mL of nuclease-free Water); (B) 96-Well Master Mix+Compound Plate (Half-log dilutions (30 μM−0.1 μM) of 4 compounds of interest are prepared in 100% DMSO); 96-Well DNA Plate (Five DNA constructs are plated into single columns within the plate. Row 1 of the column contains nuclease free H2O, all other wells contain 110 ng/μL plasmid DNA). Reactions are started by mixing 155 μL of master mix and 3.5 μL of compound serial dilutions, then 9.1 μL of master mix+compound mixture is aliquoted across 5 96-well plates. Reactions begin with final addition of 2 μL of DNA for a 11.1 μL reaction volume in each well. The entire plate is sealed, and incubated for 2 hrs at 30° C. After 2 hrs, quench the assay using 45 μL of PBS, and transfer 50 μL to a flat-bottom black microplate Quantify the sfGFP and mCherry signals from each well on each plate, taking 3 reads of each plate, and perform data analysis below.
In vitro transcription-translation assay data analysis: Each plate is read three times in channels for both sfGFP and mCherry signals. The average signal across these 3 reads is then calculated for further analysis. Control wells containing no DNA reporter are subtracted from reporter wells in the same column to remove auto-fluorescence of the lysate. Then, the ratio of sfGFP/mCherry is calculated per well, and these ratios are averaged across the triplicate experiments on the same plate. Finally, the ratio of each titration concentration is normalized to the no drug control to create the normalized stalling metric. The error on this measurement is determined by propagating error through the averaging and normalization steps. Values are plotted and fit for IC50 determination for each test sequence and titration of compound.

[2] = system: MYC; assay: In vitro transcription-translation (IVTT) assay, MYC reporter; conditions: IVTT assay, HeLa S3 lysate, MYC reporter, normalized sfGFP/mCherry ratio; half-log dilutions 30 μM-0.1 μM, 2 hrs at 30° C.
In short: (§1)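 Reporter: mCherry, P2A, then 3×FLAG-target peptide-sfGFP fusion, IRES-initiated; HeLa S3 lysate IVTT; cpd dilutions 30 μM−0.1 μM half-log in 100% DMSO (dilution-plate conc); DNA added last; 2 h, 30° C; PBS quench.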

[3] = system: CCND1; assay: In vitro transcription-translation (IVTT) assay, CCND1 reporter; conditions: IVTT assay, HeLa S3 lysate, sfGFP/mCherry ratio
In short: as §1

Row | IC50 [1] [µM] | IC50 [3] [µM] | Compound | IC50 [2] [µM]
1 | < 10 | 10 to 20 | O=C(NCC[C@H]1CCNC[C@H]1F)O[C@@H]1[C@@H](O)CN[C@@H]1Cc1ccc(-c2cnco2)cc1 [V192897, (2R,3S,4S)-4-hydroxy-2-{[4-(1,3-oxazol-5-yl)phenyl]methyl}pyrrolidin-3-yl N-{2-[(3S,4R)-3-fluoropiperidin-4-yl]ethyl}carbamate] | < 10
2 | < 10 | < 10 | O=C(NCCC1CCNCC1)O[C@@H]1[C@@H](O)CN[C@@H]1Cc1ccc(-c2ccc(Cl)s2)cc1 [V192261, (2R,3S,4S)-2-{[4-(5-chlorothiophen-2-yl)phenyl]methyl}-4-hydroxypyrrolidin-3-yl N-[2-(piperidin-4-yl)ethyl]carbamate] | < 10
3 | < 10 | < 10 | (3S,4S,5R)-4-({[(3-fluorophenyl)methyl]carbamoyl}oxy)-5-{[4-(1,3-oxazol-5-yl)phenyl]methyl}pyrrolidin-3-yl acetate [V192392] | < 10
4 | < 10 | < 10 | O=C(NCC[C@@H]1CCNCC1(F)F)O[C@@H]1[C@@H](O)CN[C@@H]1Cc1ccc(-c2cnco2)cc1 [V192234, (2R,3S,4S)-4-hydroxy-2-{[4-(1,3-oxazol-5-yl)phenyl]methyl}pyrrolidin-3-yl N-{2-[(4S)-3,3-difluoropiperidin-4-yl]ethyl}carbamate] | < 10
5 | < 10 | < 10 | O=C(NCC[C@@H]1CCCN1)O[C@@H]1[C@@H](O)CN[C@@H]1Cc1ccc(-c2cnns2)cc1 [V192320, (2R,3S,4S)-4-hydroxy-2-{[4-(1,2,3-thiadiazol-5-yl)phenyl]methyl}pyrrolidin-3-yl N-{2-[(2S)-pyrrolidin-2-yl]ethyl}carbamate] | < 10
6 | < 10 | < 10 | C[C@H]1CC[C@@H](CCNC(=O)O[C@@H]2[C@@H](O)CN[C@@H]2Cc2ccc(-c3cnco3)cc2)N1 [V192850, (2R,3S,4S)-4-hydroxy-2-{[4-(1,3-oxazol-5-yl)phenyl]methyl}pyrrolidin-3-yl N-{2-[(2S,5S)-5-methylpyrrolidin-2-yl]ethyl}carbamate] | < 10
7 | < 10 | < 10 | O=C(NCc1cccc(F)c1)O[C@@H]1[C@@H](O)CN[C@@H]1Cc1ccc(OCF)cc1 [V190507, (2R,3S,4S)-2-(4-(fluoromethoxy)benzyl)-4-hydroxypyrrolidin-3-yl (3-fluorobenzyl)carbamate] | < 10
8 | < 10 | < 10 | O=C(NCCC12CC(CN1)C2)O[C@@H]1[C@@H](O)CN[C@@H]1Cc1ccc(-c2cnco2)cc1 [V192847, (2R,3S,4S)-4-hydroxy-2-{[4-(1,3-oxazol-5-yl)phenyl]methyl}pyrrolidin-3-yl N-(2-{2-azabicyclo[2.1.1]hexan-1-yl}ethyl)carbamate] | < 10
9 | < 10 | < 10 | O=C(NCc1cccc(F)c1)O[C@@H]1[C@@H](O)CN[C@@H]1Cc1ccc(Oc2cncs2)cc1 [V192395, (2R,3S,4S)-4-hydroxy-2-{[4-(1,3-thiazol-5-yloxy)phenyl]methyl}pyrrolidin-3-yl N-[(3-fluorophenyl)methyl]carbamate] | < 10
10 | < 10 | < 10 | O=C(NCC[C@@H]1C[C@H](C(F)(F)F)CN1)O[C@@H]1[C@@H](O)CN[C@@H]1Cc1ccc(-c2cnco2)cc1 [V192912, (2R,3S,4S)-4-hydroxy-2-{[4-(1,3-oxazol-5-yl)phenyl]methyl}pyrrolidin-3-yl N-{2-[(2S,4S)-4-(trifluoromethyl)pyrrolidin-2-yl]ethyl}carbamate] | < 10
11 | < 10 | < 10 | O=C(NCc1cccc(F)c1)O[C@@H]1[C@@H](O)CN[C@@H]1Cc1ccc(-c2cnns2)cc1 [V192319, (2R,3S,4S)-4-hydroxy-2-{[4-(1,2,3-thiadiazol-5-yl)phenyl]methyl}pyrrolidin-3-yl N-[(3-fluorophenyl)methyl]carbamate] | < 10
12 | < 10 | < 10 | O=C(NCCSC(F)(F)F)O[C@@H]1[C@@H](O)CN[C@@H]1Cc1ccc(-c2cnco2)cc1 [V192442, (2R,3S,4S)-4-hydroxy-2-{[4-(1,3-oxazol-5-yl)phenyl]methyl}pyrrolidin-3-yl N-{2-[(trifluoromethyl)sulfanyl]ethyl}carbamate] | < 10
13 | < 10 | < 10 | O=C(NCC[C@@H]1CCCN1)O[C@@H]1[C@@H](O)CN[C@@H]1Cc1ccc([N+](=O)[O-])cc1 [V192359, (2R,3S,4S)-4-hydroxy-2-[(4-nitrophenyl)methyl]pyrrolidin-3-yl N-{2-[(2S)-pyrrolidin-2-yl]ethyl}carbamate] | < 10
14 | < 10 | < 10 | O=C(NCC[C@@H]1CCCN1)O[C@@H]1[C@@H](O)CN[C@@H]1Cc1ccc(C(F)F)cc1 [V192893, (2R,3S,4S)-2-(4-(difluoromethyl)benzyl)-4-hydroxypyrrolidin-3-yl (2-((S)-pyrrolidin-2-yl)ethyl)carbamate] | < 10
15 | < 10 | < 10 | O=C(NCCc1cc(F)c(O)c(F)c1)O[C@@H]1[C@@H](O)CN[C@@H]1Cc1ccc(-c2cnco2)cc1 [V192432, (2R,3S,4S)-4-hydroxy-2-{[4-(1,3-oxazol-5-yl)phenyl]methyl}pyrrolidin-3-yl N-[2-(3,5-difluoro-4-hydroxyphenyl)ethyl]carbamate] | < 10
16 | < 10 | < 10 | O=C(NCc1cccc(F)c1)O[C@@H]1[C@@H](O)CN[C@@H]1Cc1ccc(-c2ccns2)cc1 [V192324, (2R,3S,4S)-4-hydroxy-2-{[4-(1,2-thiazol-5-yl)phenyl]methyl}pyrrolidin-3-yl N-[(3-fluorophenyl)methyl]carbamate] | < 10
17 | < 10 | < 10 | (2R,3S,4S)-2-{[2-fluoro-4-(1,3-oxazol-5-yl)phenyl]methyl}-4-hydroxypyrrolidin-3-ylN-[(3-fluorophenyl)methyl]carbamate [V192861] | < 10
18 | < 10 | < 10 | O=C(NCc1cccc(F)c1)O[C@@H]1[C@@H](O)CN[C@@H]1Cc1ccc(-c2ccc3nonc3c2)cc1 [V192385, (2R,3S,4S)-2-{[4-(2,1,3-benzoxadiazol-5-yl)phenyl]methyl}-4-hydroxypyrrolidin-3-yl N-[(3-fluorophenyl)methyl]carbamate] | < 10
